# Laboratory results: patent publication US20220297126A1, “Microfluidic Pipette Aspirators for Large-Scale Analysis of Single Cells, Clusters and Their Sub-Populations” (Texas Tech University System, priority 2019, published 2022)
# Counter-ions that a name gives are not always drawn.
# What was measured:
# Assay type in all cases: cell-based
# MCF-7 single cells = assay: Proliferation of single cells in the microfluidic device in the presence of Dox; settings: time not restated (period of 48 hours)
# Procedure: (§1) Drug Assays. Drug assays were conducted on the tumor cells trapped in the microfluidic device. Food and Drug Administration (FDA) approved chemotherapeutic medication Doxorubicin hydrochloride (Dox, Sigma Aldrich) was used on these cells. Dox was diluted with WFI (water for injection) for cell culture (Gibco) to make a 1 mM Dox solution and it was stored at 4° C. This stock solution of Dox was diluted to 100 μM using DMEM, and further 10-fold serial dilutions were done using DMEM or 1× Annexin Binding Buffer (Life technologies) to obtain the desired concentrations of 100 μM, 10 μM, 1 μM, 0.1 μM, 0.01 μM and 0.001 μM. For all experiments, Dox was prepared freshly by diluting it to 100 μM using DMEM and further dilutions were done to achieve the desired concentrations of Dox. The mixing of Dox with the cell samples and loading them in the microfluidic device was done within 2 minutes, followed by imaging of the loaded sample in the microfluidic device. After imaging the microfluidic device, it was incubated in 37° C. and 5% CO2 environment.
# (§2) Experimental Protocol. The experimental setup for single cell isolation consists of the microfluidic device, 200 μL single channel pipette (Eppendorf) and a motorized inverted system microscope (Olympus IX81). A sample of 2000 cells in 100 μL was loaded in the 6 mm reservoir (inlet) in the microfluidic device. A 200 μL single channel pipette was set at the 1 mm outlet and it was used to aspirate the cell sample. Flow is generated from the inlet reservoir due to the aspiration pressure and passes through the trapping array. As soon as a cell enters into the parking spots, it gets trap there due to the obstacle pillar. This setup is shown the by schematic in FIG. 2A.
# (§3) The MCF-7 cells are tagged using a green fluorescent dye CMFDA (Life technologies) and are trapped in the microfluidic device using the same protocol. […] Media was added in the hydrodynamic height added on the reservoir to keep the cells from getting displaced from the parking spots. All the cell samples including the drug treated cells were handled with the same experimental procedure. The loading time of the cells after cell sample preparation is ˜5 seconds. The hydrodynamic height for the drug treated samples was given by media of corresponding drug concentration.
# (§4) Cell staining, viability and apoptosis detection. Proliferation of cells in the microfluidic chip was monitored using CellTracker™ Green CMFDA dye (Life technologies). These counts were validated without staining and by using NucBlue™ Live ReadyProbes™ Reagent (Life technologies) to identify the cell nuclei and thus quantifying the cell counts. LIVE/DEAD® Cell Imaging Kit (Life technologies) was used to analyze viability of cells. The stain was made according to the manufacturer's protocol and was used to identify the live and dead cells. Alexa Fluor® 488 Annexin V (Life technologies) was used for detection of apoptosis. The cell sample and Dox dilution was done using 1× Annexin Binding Buffer (Life technologies). 100 μL of sample was prepared (80 μL cell sample+10 μL Annexin V+10 μL Dox) for conducting drug assays. The final concentrations of the Dox in 100 μL sample were 0.01 μM, 0.001 μM and 0.0001 μM. This sample was incubated at 37° C. and 5% CO2 for 30 minutes before loading in the microfluidic device. The images were taken at different time points for different studies. The microfluidic device was stored in the incubator at 37° C. and 5% CO2 between different image time points.
# (§5) To understand the effect of different concentrations of dox on viability of single cells, the inventors conducted a dose response cell viability assay in the microfluidic device. […] From this viability curve, three concentrations were selected to study the proliferation potential of drug resistant MCF-7 and MB-231 single cells. As the […] on the proliferation rate, the lowest three concentrations were selected for this study. […]
# MB-231 single cells = assay: as above
# Procedure: as §1, §2, §3, §4, §5
# MCF-7 cells = assay: Identifying the state of drug treated cells (apoptotic, non-proliferating/quiescent, proliferating) in the microfluidic device; settings: for cells identified as quiescent: 48 hours
# Procedure: as §1, §4
# (§6) Identifying the state of drug treated cells. […] These single cells can exist in an apoptotic state or a non-proliferative (quiescent) state. Thus, identifying the state of the cell can give overall information about the drug resistance of cancer cells.
# (§7) The apoptotic cells are dead cells; and the non-proliferating cells are the drug resistant cells which are live and have very low proliferative potential. The proliferating cells are also drug resistant cells, which multiply despite of the presence of drug. The drug response for these trapped cells is assessed at 0, 6, 12, 24, 48 hours at 0.01 μM, 0.001 μM and 0.0001 μM concentrations of Dox.
# (§8) At the end of 48 hours, the non-proliferative cells were identified as quiescent cells. […] Similarly, 23%, 34% and 10% of cells were identified as quiescent for 0.01 μM, 0.001 μM and 0.0001 μM of dox and MB-231.
# MB-231 cells = assay: as above; settings: for cells identified as quiescent: 48 hours
# Procedure: as §1, §4, §6, §7, §8
# MB231 cells = assay: Mechanical characterization (Young's modulus) of drug treated cells in the μFPA device; settings: FIG. 12A
# Procedure: Total 1440 traps, 150 μL Inlet reservoir, Aspiration channel dimension 5×5×35 μm^3. In these figures, a schematic of the complete design. It has an inlet reservoir for holding cell sample. The inlet channel divides into 8 channels and all of them have dead ends. Aspiration traps are place on both sides of the inlet channels. Outlets of two aspiration arrays comes into an outlet channel. Except the first and last outlet channel where a single aspiration has outlets. It has total 1440 traps. This is the snapshot of the PDMS device. In the SEM image you can have a sense of the larger dimension of inlet and outlet channels compared to the aspiration channels.
# FIGS. 10A to 10C show the mechanical characterization of cells in the device of the present invention.
# FIGS. 12A and 12B show the sensitivity of different cells (MB231 and MCF7) to different drugs (blebbistatin and paclitaxel), and the Young's modulus of the cells. […] Also, cell cycle phases have altered cytoskeletal scaffold. Thus, the μFPA device is sensitive enough to measure cytoskeletal alterations caused by drug interventions and cell cycle phase.
Compound,"cells underwent proliferation (MCF-7 single cells; MCF-7, 0.0001 μM Dox)","cells underwent proliferation (MCF-7 single cells; MCF-7, 0.001 μM Dox)","cells underwent proliferation (MCF-7 single cells; MCF-7, 0.01 μM Dox)","cells proliferated (MB-231 single cells; MB-231, 0.0001 μM dox, time not restated (period of 48 hours))","cells proliferated (MB-231 single cells; MB-231, 0.001 μM dox, time not restated (period of 48 hours))","cells proliferated (MB-231 single cells; MB-231, 0.01 μM dox, at the end of 48 hours)","cells proliferated (MB-231 single cells; MB-231, 0.01 μM dox, in 24 hours)","cells show drug resistance (MCF-7 cells; MCF-7, 0.0001 μM dox)","cells identified as quiescent (MCF-7 cells; MCF-7, 0.0001 μM dox)","cells show drug resistance (MCF-7 cells; MCF-7, 0.001 μM dox)","cells identified as quiescent (MCF-7 cells; MCF-7, 0.001 μM dox)","cells show drug resistance (MCF-7 cells; MCF-7, 0.01 μM dox)","cells identified as quiescent (MCF-7 cells; MCF-7, 0.01 μM dox)","cells show drug resistance (MB-231 cells; MB-231, 0.0001 μM dox)","cells identified as quiescent (MB-231 cells; MB-231, 0.0001 μM dox)","cells show drug resistance (MB-231 cells; MB-231, 0.001 μM dox)","cells identified as quiescent (MB-231 cells; MB-231, 0.001 μM dox)","cells show drug resistance (MB-231 cells; MB-231, 0.01 μM dox)","cells identified as quiescent (MB-231 cells; MB-231, 0.01 μM dox)",cytoskeletal alteration seen as Young's modulus of the cells vs control (MB231 cells)
"COc1cccc2c1C(=O)c1c(O)c3c(c(O)c1C2=O)C[C@@](O)(C(=O)CO)C[C@@H]3O[C@H]1C[C@H](N)[C@H](O)[C@H](C)O1 [Dox, Doxorubicin hydrochloride]",~80%,~60%,~45%,~70%,~50%,~40%,~20%,~90%,6%,~75%,10%,~60%,8%,~85%,10%,~80%,34%,~60%,23%,–
Cc1ccc2c(c1)C(=O)C1(O)CCN(c3ccccc3)C1=N2 (stereo not drawn) [blebbistatin],–,–,–,–,–,–,–,–,–,–,–,–,–,–,–,–,–,–,–,cytoskeletal alternations in MB231 are induced
CC(=O)O[C@H]1C(=O)[C@@]2(C)[C@H]([C@H](OC(=O)c3ccccc3)[C@]3(O)C[C@H](OC(=O)[C@H](O)[C@@H](NC(=O)c4ccccc4)c4ccccc4)C(C)=C1C3(C)C)[C@]1(OC(C)=O)CO[C@@H]1C[C@@H]2O [paclitaxel],–,–,–,–,–,–,–,–,–,–,–,–,–,–,–,–,–,–,–,cytoskeletal alternations in MB231 are induced
